Patent publication US20220160617A1, “COMPOSITIONS AND METHODS FOR IMPROVING SKIN HEALTH AND FOR THE TREATMENT AND PREVENTION OF DISEASES, DISORDERS AND CONDITIONS ASSOCIATED WITH PATHOGENIC MICROBES” (DermBiont, Inc., priority 2019, published 2022)
Where a SMILES comes first, the peptide text is derived from it. Bridges are numbered along the chain shown (N, C = ends). [ ]: non-standard residue; d: D form. The star is where a group is joined. Ileψ(thiazoline)Cys = CC[C@H](C)[C@H](N)C1=N[C@H](C(=O)*)CS1; dOrn = NCCC[C@@H](N)C(=O)O

Tested on: Janthinobacterium lividum strains
Test: Internal antibiotic resistance test (BD BBL Sensi-Disc zone of inhibition)
Type: cell-based
Settings: all 5 strains; disc content per antibiotic
Experimental: One Janthinobacterium lividum colony of 3-day old grown in 50% BHI agar was mixed well in 1 ml of 1×PBS buffer, diluted 10× and 100×, respectively. 200 μl of diluted Janthinobacterium lividum cells were evenly plated onto R2A/BHI agar plates in triplicate in 150 mm petri dishes. Antibiotic discs (BD BBL Sensi-Disc antimicrobial susceptibility test discs) were dispensed using a Disc dispenser (BD BBL Sensi-Disc Designer Dispenser System, 12-Place). Plates were incubated for 2-3 days at room temperature and imaged at the end of incubation.
The sensitivity of Janthinobacterium lividum to antibiotics is reflected by a clear zone of inhibition of Janthinobacterium lividum cells surrounding the antibiotic discs. The zone of inhibition was measured using ImageJ and was transformed into cm for analysis.

Compound | sensitivity of Janthinobacterium lividum to antibiotic disc
O=C(O)c1cn(C2CC2)c2cc(N3CCNCC3)c(F)cc2c1=O [Ciprofloxacin] | sensitive
CC[C@H]1OC(=O)[C@H](C)[C@@H](O[C@H]2C[C@@](C)(OC)[C@@H](O)[C@H](C)O2)[C@H](C)[C@@H](O[C@@H]2O[C@H](C)C[C@H](N(C)C)[C@H]2O)[C@](C)(O)C[C@@H](C)C(=O)[C@H](C)[C@@H](O)[C@]1(C)O [Erythromycin] | sensitive
CC1(C)S[C@@H]2[C@H](NC(=O)[C@H](N)c3ccccc3)C(=O)N2[C@H]1C(=O)O [ampicillin] | sensitive
CC(=O)OCC1=C(C(=O)O)N2C(=O)[C@@H](NC(=O)Cc3cccs3)[C@H]2SC1 [cephalothin] | sensitive
[H]/N=C(/N)N[C@H]1[C@H](O)[C@@H](O)[C@H](O[C@@H]2O[C@@H](C)[C@](O)(C=O)[C@H]2O[C@@H]2O[C@@H](CO)[C@H](O)[C@@H](O)[C@@H]2NC)[C@@H](N/C(N)=N\[H])[C@@H]1O [streptomycin] | sensitive
CN[C@H](CC(C)C)C(=O)N[C@H]1C(=O)N[C@@H](CC(N)=O)C(=O)N[C@H]2C(=O)N[C@H]3C(=O)N[C@H](C(=O)N[C@H](C(=O)O)c4cc(O)cc(O)c4-c4cc3ccc4O)[C@H](O)c3ccc(c(Cl)c3)Oc3cc2cc(c3O[C@@H]2O[C@H](CO)[C@@H](O)[C@H](O)[C@H]2O[C@H]2C[C@](C)(N)[C@H](O)[C@H](C)O2)Oc2ccc(cc2Cl)[C@H]1O [vancomycin] | sensitive
penicillin | sensitive

Tested on: fungal or bacterial pathogens
Test: not given
Type: cell-based
Settings: not given

Compound | Concentration Range of Efficacy [mM]
O=[N+]([O-])O [Nitrate] | 0.1 to 1
O=NO [Nitrite] | 0.1 to 1

Same assay, conditions: components for enhancing function of human-derived Janthinobacterium lividum

Compound | Concentration Range of Efficacy [mM]
CC(O)C(N)=O (racemic) [D,L-Lactamide] | 0.1 to 1
O=P(O)(O)OCC(O)CO (racemic) [D,L-α-Glycerol Phosphate] | 2 to 20
CC(O)CO (centres unmarked) [1,2-Propanediol] | 2 to 20
Nc1ncnc2c1ncn2C1CC(O)C(CO)O1 (centres unmarked) [2-Deoxy Adenosine] | 2 to 20
O=CC[C@H](O)[C@H](O)CO [2-Deoxy-DRibose] | 1 to 5
O=C[C@@H](O)[C@H](O[C@@H]1O[C@H](CO)[C@H](O)[C@H](O)[C@H]1O)[C@H](O)CO [3-0-β-D-Galactopyranosyl-D Arabinose] | 1 to 5
C[C@H](N)C(=O)N[C@@H](CCC(=O)O)C(=O)O [Ala-Glu] (H-Ala-Glu-OH) | 0.1 to 1
OC[C@@H](O)C(O)[C@H](O)CO [D-Arabitol] | 1 to 5
OC[C@H]1O[C@@H](O[C@H]2[C@H](O)[C@@H](O)[C@H](O)O[C@@H]2CO)[C@H](O)[C@@H](O)[C@@H]1O [D-Cellobiose] | 2 to 20
O=C(O)[C@H]1OC(O)[C@H](O)[C@@H](O)[C@@H]1O (stereo partly drawn) [D-Glucoronic Acid] | 2 to 20
N[C@@H](C(=O)O)[C@@H](O)[C@H](O)[C@H](O)CO [D-Glucosaminic Acid] | 2 to 20
O=P(O)(O)O[C@H]1O[C@H](CO)[C@@H](O)[C@H](O)[C@H]1O [D-Glucose-1-Phosphate] | 2 to 20
OC[C@H]1O[C@@](CO)(O[C@H]2O[C@H](CO)[C@@H](O)[C@H](O)[C@H]2O)[C@@H](O[C@H]2O[C@H](CO)[C@@H](O)[C@H](O)[C@H]2O)[C@@H]1O [D-Melezitose] | 1 to 5
OC[C@H]1O[C@H](OCC2O[C@@H](O)[C@H](O)[C@@H](O)[C@@H]2O)[C@H](O)[C@@H](O)[C@H]1O (stereo partly drawn) [D-Melibiose] | 2 to 20
O=C(O)[C@@H](O)[C@H](O)C(=O)O [D-Tartaric acid] | 1 to 5
OC[C@@H](O)[C@H](O)[C@H](O)[C@@H](O)CO [Dulcitol] | 2 to 20
OC[C@H](O)C(O)[C@@H](O)CO [L-Arabitol] | 1 to 5
O=C(O)[C@H](O)[C@@H](O)C(=O)O [L-Tartaric acid] | 1 to 5
OC[C@@H](O)[C@@H](O[C@H]1O[C@H](CO)[C@@H](O)[C@H](O)[C@H]1O)[C@H](O)[C@@H](O)CO [Maltitol] | 1 to 5
OC[C@H]1O[C@H](OC[C@H]2OC(O)(CO)[C@@H](O)[C@@H]2O)[C@H](O)[C@@H](O)[C@@H]1O (some centres unmarked) [Palatinose] | 1 to 5
OC[C@@]12OC[C@@H](O1)[C@@H](O)[C@@H](O)[C@@H]2O [Sedoheptulosan] | 1 to 5
OC[C@H]1O[C@H](OC[C@H]2O[C@H](OC[C@H]3O[C@H](O[C@]4(CO)O[C@H](CO)[C@@H](O)[C@@H]4O)[C@H](O)[C@@H](O)[C@@H]3O)[C@H](O)[C@@H](O)[C@H]2O)[C@H](O)[C@@H](O)[C@H]1O [Stachyose] | 1 to 5

Compound | Concentration Range of Efficacy [mM]
O=C(CO)[C@@H](O[C@H]1O[C@H](CO)[C@@H](O)[C@H](O)[C@H]1O)[C@H](O)[C@H](O)CO [Turanose] | 1 to 5
NC(N)=O [Urea] | 0.1 to 1
OC[C@H]1O[C@@H]2O[C@H]3[C@H](O)[C@@H](O)[C@@H](O[C@H]4[C@H](O)[C@@H](O)[C@@H](O[C@H]5[C@H](O)[C@@H](O)[C@@H](O[C@H]6[C@H](O)[C@@H](O)[C@@H](O[C@H]7[C@H](O)[C@@H](O)[C@@H](O[C@H]8[C@H](O)[C@@H](O)[C@@H](O[C@H]9[C@H](O)[C@@H](O)[C@@H](O[C@H]1[C@H](O)[C@H]2O)O[C@@H]9CO)O[C@@H]8CO)O[C@@H]7CO)O[C@@H]6CO)O[C@@H]5CO)O[C@@H]4CO)O[C@@H]3CO [g-Cyclodextrin] | 1 to 5
OC[C@@H](O)[C@@H](O)CO [i-Erythritol] | 1 to 5
OC[C@H]1O[C@@H]2O[C@H]3[C@H](O)[C@@H](O)[C@@H](O[C@H]4[C@H](O)[C@@H](O)[C@@H](O[C@H]5[C@H](O)[C@@H](O)[C@@H](O[C@H]6[C@H](O)[C@@H](O)[C@@H](O[C@H]7[C@H](O)[C@@H](O)[C@@H](O[C@H]1[C@H](O)[C@H]2O)O[C@@H]7CO)O[C@@H]6CO)O[C@@H]5CO)O[C@@H]4CO)O[C@@H]3CO [α-Cyclodextrin] | 1 to 5
O=C1CCC(C(=O)O)O1 (stereo not drawn) [α-Hydroxy Glutaric Acid-g-Lactone] | 2 to 20
COC1OC(CO)C(O)C(O)C1O [α-Methyl-D-Galactoside] | 2 to 20
CO[C@H]1O[C@H](CO)[C@@H](O)[C@H](O)[C@H]1O [α-Methyl-D-Glucoside] | 1 to 5
COC1OC(CO)C(O)C(O)C1O [α-Methyl-D-Mannoside] | 1 to 5
OC[C@H]1O[C@@H]2O[C@H]3[C@H](O)[C@@H](O)[C@@H](O[C@H]4[C@H](O)[C@@H](O)[C@@H](O[C@H]5[C@H](O)[C@@H](O)[C@@H](O[C@H]6[C@H](O)[C@@H](O)[C@@H](O[C@H]7[C@H](O)[C@@H](O)[C@@H](O[C@H]8[C@H](O)[C@@H](O)[C@@H](O[C@H]1[C@H](O)[C@H]2O)O[C@@H]8CO)O[C@@H]7CO)O[C@@H]6CO)O[C@@H]5CO)O[C@@H]4CO)O[C@@H]3CO [β-Cyclodextrin] | 1 to 5
CO[C@@H]1O[C@H](CO)[C@@H](O)[C@H](O)[C@H]1O [β-Methyl-D-Galactoside] | 1 to 5
CO[C@@H]1O[C@H](CO)[C@@H](O)[C@H](O)[C@H]1O [β-Methyl-D-Glucoside] | 2 to 20
CO[C@@H]1O[C@H](C(=O)O)[C@@H](O)[C@H](O)[C@H]1O [β-Methyl-D-Glucuronic Acid] | 1 to 5
COC1OCC(O)C(O)C1O [β-Methyl-D-Xyloside] | 1 to 5
Chondroitin Sulfate C | 1 to 5
Glycogen | 1 to 5
Inulin | 1 to 5
Laminarin | 1 to 5
Maltotriose | 2 to 20
Mannan | 1 to 5
Pectin | 1 to 5
dextrin | 1 to 5

Tested on: Janthinobacterium lividum strains
Test: Antibiotic MIC tests, sensitivity summary
Type: cell-based
Settings: not given
Experimental: The antibiotic resistance profile and MICs tests were performed using Janthinobacterium lividum grown from cultures purified and grown in vegitone LB broth.

Compound | sensitivity of Janthinobacterium lividum strains to antibiotic
CC[C@H](C)[C@H](N)C1=N[C@H](C(=O)N[C@@H](CC(C)C)C(=O)N[C@H](CCC(=O)O)C(=O)N[C@H](C(=O)N[C@H]2CCCCNC(=O)[C@H](CC(N)=O)NC(=O)[C@@H](CC(=O)O)NC(=O)[C@H](Cc3cnc[nH]3)NC(=O)[C@@H](Cc3ccccc3)NC(=O)[C@H]([C@@H](C)CC)NC(=O)[C@@H](CCCN)NC2=O)[C@@H](C)CC)CS1 [Bacitracin] ({Ileψ(thiazoline)Cys}-L[dE]IK[dOrn]I[dF]H[dD]N; lactam 4-C) | resistant

Tested on: E. Coli ATCC25922
Test: not given
Settings: cited from earlier work

Compound | MIC, CLSI QC ranges [µg/mL]
NCC[C@H](O)C(=O)N[C@@H]1C[C@H](N)[C@@H](O[C@H]2O[C@H](CN)[C@@H](O)[C@H](O)[C@H]2O)[C@H](O)[C@H]1O[C@H]1O[C@H](CO)[C@@H](O)[C@H](N)[C@H]1O [Amikacin] | 0.5 to 4
CO/N=C(\C(=O)N[C@@H]1C(=O)N2C(C(=O)O)=C(CSc3nc(=O)c(=O)[nH]n3C)CS[C@H]12)c1csc(N)n1 [Ceftriaxone] | 0.03 to 0.12
